Like-named read-outs stand apart in the source and are kept apart here.
Columns and labels:
Chinese white rabbits [1] = assay: Wound healing, scar area; type: in vivo, rabbit; settings: 5% aqueous solution applied to the nearby area of wounds, vs control rabbits
Excerpt: 25 Chinese white rabbits were divided into 5 groups and hairs on the back of rabbits were removed (5×5 cm^2).

rats = assay: Antipyretic activity, E. coli suspension as pyrogen; type: in vivo; settings: in °C (unit assumed)
Method: Rats are administered with sterilized E. coli suspension as a pyrogen. Each group of rats are administered with a prodrug compounds or parent compounds at a dosage specified below. The prodrug compounds are administered either orally or transdermally. The parent compounds are administered orally.

human skin tissue [2] = assay: In vitro penetration rate through human skin, modified Franz cells; settings: Franz cell; for In vitro penetration rate (apparent flux), prodrug compounds: 20% solution in 0.2 M phosphate buffer pH 7.4, human skin
[3] = Plasma levels after transdermal administration to hairless mice; type: in vivo
Method: Tested compounds (20% solution or suspension in 1 mL isopropanol) are administered transdermally to the skin of intact hairless mice. The plasma levels of the parent compounds are determined by HPLC.

mice = assay: Analgesic activity, acetic acid writhing; type: in vivo
Method: The prodrug compounds are administered either transdermally or orally. The parent compounds are administered orally. The number of writhing that occurred when mice are administered the acetic acid solution are counted, and the rate of inhibition based on the control group which was not pretreated with any test compounds is calculated. […] The A group is the control group.

human skin tissue [4] = settings: pH 7.4
Chinese white rabbits [5] = assay: Malassezia-induced lesions similar to psoriasis; type: in vivo, rabbit; settings: 5% aqueous solution twice per day, 10 days after application
Excerpt: Heavy suspensions of Malassezia [Rosenberg, E. W., et al., Mycopathologia, 72, 147-154 (1980)] were applied to the shaved skin on the backs of the Chinese white rabbits (n=4×6) twice (at 7 am and 7 pm) per day for 2 weeks, lesions similar to psoriasis resulted.

[6] = Solubility in water / aqueous solubility of HPPs and parent drugs; settings: medium not given
[7] = 100 mg/kg transdermally, 30 min before acetic acid
[8] = transdermal, 20% in 1 mL isopropanol, hairless mice
[9] = 100 mg/kg transdermally, 60 minutes before acetic acid
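For LD50 of HPP in this document: acute toxicity in rats expressed as LD50, determined for both prodrugs and their parent compounds.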

SMILES | average scar area (Chinese white rabbits [1]) | body temperature, t = 0 min (rats; 100 mg/kg transdermally) | body temperature, t = 90 min (rats; 100 mg/kg transdermally) | body temperature, t = 180 min (rats; 100 mg/kg transdermally) | body temperature, t = 270 min (rats; 100 mg/kg transdermally) | % (rate of writhing inhibition) (mice; [7]) | No. of Writhing (mice; [7]) | also measured
CC(C)Cc1ccc(C(C)C(=O)OCC2CCCNC2)cc1.Cl (centres unmarked) [3-piperidinemethyl 2-(ρ-isobutylphenyl) propionate.HCl] | only a third of that of the control rabbits |  |  |  |  |  |  | 
CC(C(=O)O)c1cccc(C(=O)c2ccccc2)c1 (centres unmarked) [Ketoprofen, 2-(3-benzoylphenyl) propionic acid, reference compound] |  |  |  |  |  |  |  | body temperature, t = 0 min (rats; 50 mg/kg orally): 37.25 ± 0.06; body temperature, t = 90 min (rats; 50 mg/kg orally): 36.81 ± 0.05; body temperature, t = 180 min (rats; 50 mg/kg orally): 36.82 ± 0.08; body temperature, t = 270 min (rats; 50 mg/kg orally): 36.78 ± 0.07; In vitro penetration rate (apparent flux), parent compounds (human skin tissue [2]; 20% suspension in 0.2 M phosphate buffer pH 7.4, human skin, detection limit 1): <1 μg/cm^2/h; t, time to peak plasma level after parent compound ([3]; parent compound administered (time when taken orally)): 1 to 2 h; Peak plasma concentration after parent compound ([3]; parent compound administered, hairless mice): 1 mg/L; No. of Writhing (mice; 50 mg/kg orally, 30 min before acetic acid): 18.1; inhibition at 50 mg/kg (mice; Mus musculus, po, 50 mg/kg orally, 30 min before acetic acid, read-out: % (rate of writhing inhibition)): 48%
CCc1cccc2c3c([nH]c12)C(CC)(CC(=O)OCCN(CC)CC)OCC3.Cl (centres unmarked) [diethylaminoethyl 1,8-diethyl-1,3,4,9-tetrahydropyrano-[3,4-b]indole-1-acetate.HCl] | only a third of that of the control rabbits |  |  |  |  |  |  | 
CC(=O)O.CCN(CC)CCOC(=O)COC(=O)Cc1c(C)n(C(=O)c2ccc(Cl)cc2)c2ccc(OC)cc12 [diethylaminoethyl 1-(4-chlorobenzoyl-5-methoxy-2-methyl-1H-indole-3-acetoxyacetate.AcOH] |  | 37.21 ± 0.06 | 36.75 ± 0.05 | 36.62 ± 0.08 | 36.58 ± 0.07 | 55% | 15.6 | LD50 of HPP (rat; rat, in vivo): 1200 mg/kg; In vitro penetration rate (apparent flux), prodrug compounds (human skin tissue [4]): 1200 μg/cm^2/h; Peak plasma concentration of parent compound after prodrug compound ([3]; mouse, in vivo): 20 mg/L; t, time to peak plasma level of parent compound after prodrug compound ([3]; mouse, in vivo): 50 min; lesions similar to psoriasis (Chinese white rabbits [5]): the lesions were resolved
CCN(CC)CCOC(=O)COC(=O)Cc1c(C)n(C(=O)c2ccc(Cl)cc2)c2ccc(OC)cc12.Cl [diethylaminoethyl 1-(4-chlorobenzoyl-5-methoxy-2-methyl-1H-indole-3-acetoxyacetate.HCl] | only a third of that of the control rabbits |  |  |  |  |  |  | 
CCN(CC)CCOC(=O)Cc1ccc(C(=O)c2ccc(C)cc2)n1C.Cl [diethylaminoethyl 1-methyl-5-(4-methylbenzoyl)-1H-pyrrole-2-acetate.HCl] | only a third of that of the control rabbits |  |  |  |  |  |  | 
CC(=O)O.CCN(CC)CCOC(=O)c1ccccc1Nc1cccc(C(F)(F)F)c1 [diethylaminoethyl 2-[[(3-(trifluoromethyl)phenyl)amino]benzoate.AcOH] |  | 37.27 ± 0.06 | 36.76 ± 0.05 | 36.65 ± 0.08 | 36.49 ± 0.07 |  |  | LD50 of HPP (rat; rats): 800 mg/kg; In vitro penetration rate (apparent flux), prodrug compounds (human skin tissue [2]): 2200 μg/cm^2/h; Peak plasma concentration of parent compound after prodrug compound [3, 8]: 20 mg/L; t, time to peak plasma level of parent compound after prodrug compound [3, 8]: 50 min; Solubility of HPP [6]: >400 mg/mL; % (rate of writhing inhibition) (mice; [9]): 54%; No. of Writhing (mice; [9]): 16.1
CC(=O)O.CCN(CC)CCOC(=O)Cc1cccc(C(=O)c2ccc(Br)cc2)c1N [diethylaminoethyl 2-amino-3-(4-bromo-benzoyl)benzeneacetate.AcOH] |  | 37.25 ± 0.06 | 36.71 ± 0.05 | 36.65 ± 0.08 | 36.64 ± 0.07 | 62% | 13.2 | LD50 of HPP (rat; rats): 1600 mg/kg; In vitro penetration rate (apparent flux), prodrug compounds (human skin tissue [4]): 1100 μg/cm^2/h; Peak plasma concentration of parent compound after prodrug compound ([3]; mouse, in vivo): 20 mg/L; t, time to peak plasma level of parent compound after prodrug compound ([3]; mouse, in vivo): 50 min; lesions similar to psoriasis (Chinese white rabbits [5]): the lesions were resolved
CCN(CC)CCOC(=O)Cc1cccc(C(=O)c2ccc(Br)cc2)c1N.Cl [diethylaminoethyl 2-amino-3-(4-bromo-benzoyl)benzeneacetate.HCl] | only a third of that of the control rabbits |  |  |  |  |  |  | 
CCN(CC)CCOC(=O)Cc1cn(-c2ccccc2)nc1-c1ccc(Cl)cc1.Cl [diethylaminoethyl 3-(4-chlorophenyl)-1-phenyl-1H-pyrazole-4-acetate.HCl] | only a third of that of the control rabbits |  |  |  |  |  |  | 
C=CCOc1ccc(CC(=O)OCCN(CC)CC)cc1Cl.CC(=O)O [diethylaminoethyl 3-chloro-4-(2-propenyloxy)benzeneacetate.AcOH] |  | 37.23 ± 0.07 | 36.80 ± 0.06 | 36.70 ± 0.05 | 36.67 ± 0.08 | 55% | 15.7 | LD50 of HPP (rat; rats): 3000 mg/kg; In vitro penetration rate (apparent flux), prodrug compounds (human skin tissue [4]): 1000 μg/cm^2/h; Peak plasma concentration of parent compound after prodrug compound ([3]; mouse, in vivo): 20 mg/L; t, time to peak plasma level of parent compound after prodrug compound ([3]; mouse, in vivo): 50 min; lesions similar to psoriasis (Chinese white rabbits [5]): the lesions were resolved
C=CCOc1ccc(CC(=O)OCCN(CC)CC)cc1Cl.Cl [diethylaminoethyl 3-chloro-4-(2-propenyloxy)benzeneacetate.HCl] | only a third of that of the control rabbits |  |  |  |  |  |  | 
CC(=O)O.CCN(CC)CCOC(=O)Cc1sc(-c2ccccc2)nc1-c1ccc(Cl)cc1 [diethylaminoethyl 4-(4-chlorophenyl)-2-phenyl-5-thiazoleacetate.AcOH] |  | 37.23 ± 0.06 | 36.81 ± 0.05 | 36.75 ± 0.08 | 36.71 ± 0.07 | 54% | 16.1 | LD50 of HPP (rat; rats): 1200 mg/kg; In vitro penetration rate (apparent flux), prodrug compounds (human skin tissue [4]): 1300 μg/cm^2/h; Peak plasma concentration of parent compound after prodrug compound ([3]; mouse, in vivo): 20 mg/L; t, time to peak plasma level of parent compound after prodrug compound ([3]; mouse, in vivo): 50 min; lesions similar to psoriasis (Chinese white rabbits [5]): the lesions were resolved
CCN(CC)CCOC(=O)Cc1sc(-c2ccccc2)nc1-c1ccc(Cl)cc1.Cl [diethylaminoethyl 4-(4-chlorophenyl)-2-phenyl-5-thiazoleacetate.HCl] | only a third of that of the control rabbits |  |  |  |  |  |  | 
CCN(CC)CCOC(=O)Cc1cc(C)c(C(=O)c2ccc(Cl)cc2)n1C.Cl [diethylaminoethyl 5-(4-Chlorobenzoyl)-1,4-dimethyl-1H-pyrrole-2-acetate.HCl] | only a third of that of the control rabbits |  |  |  |  |  |  | 
CC(=O)O.CCN(CC)CCOC(=O)C(C)c1c(C)n(C(=O)c2ccc(Cl)cc2)c2ccc(OC)cc12 (stereo not drawn) [diethylaminoethyl α-methyl-(p-chlorobenzoyl)-5-methoxy-2-methylindole 3-acetate.AcOH] |  | 37.35 ± 0.06 | 36.71 ± 0.05 | 36.60 ± 0.08 | 36.59 ± 0.07 | 61% | 13.8 | In vitro penetration rate (apparent flux), prodrug compounds (human skin tissue [2]): 4000 μg/cm^2/h; Peak plasma concentration of parent compound after prodrug compound [3, 8]: 2000 mg/L; t, time to peak plasma level of parent compound after prodrug compound [3, 8]: 50 min; Solubility of HPP [6]: >450 mg/mL

Source: patent US20210353579A1, “HIGH PENETRATION COMPOSITIONS AND USES THEREOF” (Techfields Pharma Co., Ltd., priority 2006, published 2021)
